Data published in patent US11400094B2, “2H-pyrazolo[4,3-d]pyrimidine compounds as toll-like receptor 7 (TLR7) agonists and methods and uses therefor” (BRISTOL-MYERS SQUIBB COMPANY, priority 2018, dated 2022).

target: T1, human TLR7 (Homo sapiens, UniProt Q9NYK1); experiment: HEK-Blue TLR7 reporter assay (human TLR7 agonist activity, SEAP reporter); format: cell-based; settings: Table A, formula IIa compounds; HEK-Blue TLR7 cells, 18 h treatment, SEAP read-out
T1 construct: host or cells: HEK-Blue TLR7 cells (engineered human embryonic kidney cells)
T1 sequence (Q9NYK1 27-1049): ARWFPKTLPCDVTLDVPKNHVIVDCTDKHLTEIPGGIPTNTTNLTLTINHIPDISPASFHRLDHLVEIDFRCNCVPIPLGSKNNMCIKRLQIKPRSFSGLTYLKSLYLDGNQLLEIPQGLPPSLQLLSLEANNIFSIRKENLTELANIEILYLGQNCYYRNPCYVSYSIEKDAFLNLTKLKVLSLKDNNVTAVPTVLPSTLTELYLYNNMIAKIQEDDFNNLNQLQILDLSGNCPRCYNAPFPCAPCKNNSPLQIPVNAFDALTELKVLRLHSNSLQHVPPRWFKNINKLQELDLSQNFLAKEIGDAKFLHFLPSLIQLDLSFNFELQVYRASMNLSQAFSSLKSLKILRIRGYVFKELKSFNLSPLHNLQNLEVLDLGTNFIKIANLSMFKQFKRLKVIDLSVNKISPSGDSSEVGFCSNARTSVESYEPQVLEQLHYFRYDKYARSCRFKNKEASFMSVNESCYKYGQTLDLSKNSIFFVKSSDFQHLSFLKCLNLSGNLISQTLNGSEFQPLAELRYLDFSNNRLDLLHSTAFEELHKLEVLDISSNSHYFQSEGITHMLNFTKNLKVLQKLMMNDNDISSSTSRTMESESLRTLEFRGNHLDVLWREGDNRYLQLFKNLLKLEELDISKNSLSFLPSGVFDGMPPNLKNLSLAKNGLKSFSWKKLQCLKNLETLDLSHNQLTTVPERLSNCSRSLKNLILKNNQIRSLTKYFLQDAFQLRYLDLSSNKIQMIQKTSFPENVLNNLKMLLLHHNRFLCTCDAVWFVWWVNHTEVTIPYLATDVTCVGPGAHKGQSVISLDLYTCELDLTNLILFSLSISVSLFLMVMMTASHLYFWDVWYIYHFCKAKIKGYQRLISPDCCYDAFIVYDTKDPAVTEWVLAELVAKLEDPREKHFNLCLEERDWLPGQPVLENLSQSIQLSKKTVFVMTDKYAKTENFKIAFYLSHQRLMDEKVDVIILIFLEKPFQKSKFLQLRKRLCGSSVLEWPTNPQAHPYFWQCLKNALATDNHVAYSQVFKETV
Protocol: This procedure describes a method for assaying human TLR7 (hTLR7) agonist activity of the compounds disclosed in this specification.
HEK-Blue™ TLR7 cells were added to each well of a 384-well tissue-culture plate (15,000 cells per well) and incubated 16-18 h at 37° C., 5% CO2. […] After 18 h treatment ten microliters of freshly-prepared Quanti-Blue™ reagent (Invivogen) was added to each well, incubated for 30 min (37° C., 5% CO2) and SEAP levels measured using an Envision plate reader (OD=620 nm).

Structure (SMILES) | EC50 [nM]
CCCCNc1nc(N)nc2cn(Cc3ccc(CNC4CCC4)cc3OC)nc12 [IIa-01] | 340
CCCCNc1nc(N)nc2cn(Cc3ccc(CN4CCNCC4)cc3OC)nc12 [IIa-02] | 510
CCCCNc1nc(N)nc2cn(Cc3ccc(CNCCO)cc3OC)nc12 [IIa-03] | 1000
CCCCNc1nc(N)nc2cn(Cc3ccc(CNCCCN)cc3OC)nc12 [IIa-04] | 1600
CCCCNc1nc(N)nc2cn(Cc3ccc(CNCc4ccncc4)cc3OC)nc12 [IIa-05] | 450
CCCCNc1nc(N)nc2cn(Cc3ccc(CNCC4COC4)cc3OC)nc12 [IIa-07] | 610
CCCCNc1nc(N)nc2cn(Cc3ccc(CNC4CCC(O)CC4)cc3OC)nc12 (stereo not shown) [IIa-08] | 650
CCCCNc1nc(N)nc2cn(Cc3ccc(CNC4CC(O)C4)cc3OC)nc12 (stereo not shown) [IIa-09] | 420
CCCCNc1nc(N)nc2cn(Cc3ccc(CNCc4ccc(N)cc4)cc3OC)nc12 [IIa-10] | 270
CCCCNc1nc(N)nc2cn(Cc3ccc(CNCCS(C)(=O)=O)cc3OC)nc12 [IIa-11] | 540
CCCCNc1nc(N)nc2cn(Cc3ccc(CO)cc3OC)nc12 [IIa-14] | 550
CCCCNc1nc(N)nc2cn(Cc3ccc(CNC4COC4)cc3OC)nc12 [IIa-15] | 300
CCCCNc1nc(N)nc2cn(Cc3ccc(CN4CCN(CCO)CC4)cc3OC)nc12 [IIa-17] | 180
CCCCNc1nc(N)nc2cn(Cc3ccc(CNC4CCOCC4)cc3OC)nc12 [IIa-19] | 320
CCCCNc1nc(N)nc2cn(Cc3ccc(CNCC(C)(C)O)cc3OC)nc12 [IIa-20] | 280
CCCCNc1nc(N)nc2cn(Cc3ccc(Cn4ccnc4)cc3OC)nc12 [IIa-21] | 190

Structure (SMILES) | EC50 [nM]
CCCCNc1nc(N)nc2cn(Cc3ccc(CNCCOC)cc3OC)nc12 [IIa-22] | 200
CCCCNc1nc(N)nc2cn(Cc3ccc(CN4CC(CCO)C4)cc3OC)nc12 [IIa-23] | 303
CCCCNc1nc(N)nc2cn(Cc3ccc(CNCC4CC(O)C4)cc3OC)nc12 (stereo not shown) [IIa-24] | 130
CCCCNc1nc(N)nc2cn(Cc3ccc(CNc4ccc(CCO)cc4)cc3OC)nc12 [IIa-25] | 880
CCCCNc1nc(N)nc2cn(Cc3ccc(CN(C)CCCO)cc3OC)nc12 [IIa-26] | 194
CCCCNc1nc(N)nc2cn(Cc3ccc(CN4CC5CC4CN5)cc3OC)nc12 (stereo not shown) [IIa-27] | 710
CCCCNc1nc(N)nc2cn(Cc3ccc(CNC4(CO)CCCC4)cc3OC)nc12 [IIa-28] | 430
CCCCNc1nc(N)nc2cn(Cc3ccc(CN4CCCNCC4)cc3OC)nc12 [IIa-29] | 760
CCCCNc1nc(N)nc2cn(Cc3ccc(CN4CCOCC4)cc3OC)nc12 [IIa-30] | 580
CCCCNc1nc(N)nc2cn(Cc3ccc(CN4CCCCC4)cc3OC)nc12 [IIa-31] | 410
CCCCNc1nc(N)nc2cn(Cc3ccc(CN4CCCC4)cc3OC)nc12 [IIa-32] | 600
CCCCNCc1ccc(Cn2cc3nc(N)nc(NCCCC)c3n2)c(OC)c1 [IIa-33] | 810
CCCCNc1nc(N)nc2cn(Cc3ccc(CNC(C)(C)C)cc3OC)nc12 [IIa-34] | 550
CCC[C@@H](CCO)Nc1nc(N)nc2cn(Cc3ccc(CO)cc3OC)nc12 [IIa-35] | 2100
CCCCNc1nc(N)nc2cn(Cc3ccc(CN4CCN(C)CC4)cc3OC)nc12 [IIa-36] | 520

same assay, conditions: Table B, formula IIb compounds; HEK-Blue TLR7 cells, 18 h treatment, SEAP read-out

Structure (SMILES) | EC50 [nM]
CCCCNc1nc(N)nc2cn(Cc3ccc(Oc4ccc(CO)cc4)nc3)nc12 [IIb-01] | 820
CCCCNc1nc(N)nc2cn(Cc3ccc(Oc4ccc(CNCCO)cc4)cc3OC)nc12 [IIb-02] | 1600
CCCCNc1nc(N)nc2cn(Cc3ccc(Oc4ccc(CNCCO)cc4)nc3)nc12 [IIb-04] | 2100
